Experimental findings from publication PMC12022973, “Proteomimetic Strategy for the Modulation of Intrinsically Disordered Protein MYC” (Journal of the American Chemical Society, 2025) are described below.

Molecules are shown by their SMILES. Starred links: 1 amine or outer side, 2 acyl side, 3 side chain; linkers in the order of their positions; H or OH if unused. Positions of bridges follow the written chain, without caps; N, C: chain ends. Residues, ends and D or L forms follow the SMILES beside them. Chains are numbered I, II in the order given. X1 = c1cc(C[*:1])ccc1COCc1ccc(C[*:2])cc1

For data set [1], the target named is T1, full-length His6-Max (MAX^1-160) (Homo sapiens, UniProt P61244).
T1 construct: N.B. (MAX^1-160)
Nature of the data set: Fluorescence polarization direct binding to His6-MAX. Particulars: FP direct binding; 15 nM FITC-labeled peptide; His6-MAX from 10 μM; 1X PBS, 1 mM DTT, 5% glycerol, 0.1% pluronic acid, pH 6.7; 25 °C. The procedure: Fluorescence Polarization Binding Assay
The relative affinities of FITC-CHDMax-1 to His6-Myc353-436 and full-length His6-Max were
determined using fluorescence polarization-based direct binding assay. The polarization
experiments were performed using a DTX 880 Multimode Detector (Beckman) at 25 °C with
excitation and emission wavelengths of 485 and 525 nm, respectively. Each polarization
experiment was performed in a 96-well round bottom plate (Greiner) in assay buffer: 1X PBS, 1
mM DTT, 5% glycerol, 0.1% pluronic acid, pH 6.7. The binding affinity (KD) values reported for
each peptide are from experiments performed in triplicate. Raw values were fit to a sigmoidal
dose-response nonlinear regression model in GraphPad Prism 6.0.
All binding experiments with FITC-labeled peptides to His6-Myc353-436 or His6-Max were performed
under the same conditions. Briefly, serial dilutions of His6-Myc353-436 and His6-Max were made
from 10 μM into 15 nM of FITC-labeled peptide in assay buffer. KD was determined using the
KD1 = (RT*(1-FSB) + LST*FSB2)/FSB-LST
RT = Total concentration of His6-Myc353-436 or His6-Max
LST = Total concentration of FITC-labeled peptide
FSB = Fraction of bound FITC-labeled peptide
A general note: Fluorescence polarisation rises when a labelled molecule tumbles more slowly, as on binding a larger partner.

A short description of data set [2]: Serum stability assay in 25% FBS. Type of data set: in vitro ADME. The settings on record: 25% fetal bovine serum in RPMI-1640, 37 °C, RP-HPLC C18 at 280 nm, L-tryptophan internal standard, triplicate, read-out: initial peptide remaining intact in serum. How it is done:
Encouraged by the in vitro results, we evaluated the potential of CHD^Max-1 to form a complex with MYC in cellulo. We first assessed the ability of CHDs to resist proteolytic degradation in fetal bovine serum (FBS). We monitored the rate of peptide degradation under the treatment of 25% FBS over 24 h by RP-HPLC, with tryptophan as an internal standard. […] After validating the serum stability of CHD^Max-1, we tested its potential to enter live cells. We chose T24 cells, a bladder cancer cell line, for these studies because these cells express a high level of MYC.[39] We assessed the ability of fluorescein-labeled FITC–CHD^Max-1 to enter T24 cells using confocal microscopy and observed overlapped fluorescein and Hoechst nuclear stain signals, showing internalization of FITC–CHD^Max-1 (Figure 4C).
CD experiments were conducted on an Jasco J-1500 Circular Dichroism spectrometer equipped with a temperature controller using 1 mm length cells and a scan speed of 4.0 nm/min at 298 K. The spectra were averaged over 5 scans with baseline subtraction. […] The concentrations of each peptide were determined by the UV absorption at 280 nm.
Proteolytic stability of CHDMax-1 was assessed in 25% serum by using fetal bovine serum (FBS, Gibco) in Roswell Park Memorial Institute (RPMI)-1640 medium at 37 °C. […] Time points of 0 h, 6 h, and 24 h were analyzed in triplicate. […]

T1 sequence (P61244 whole entry): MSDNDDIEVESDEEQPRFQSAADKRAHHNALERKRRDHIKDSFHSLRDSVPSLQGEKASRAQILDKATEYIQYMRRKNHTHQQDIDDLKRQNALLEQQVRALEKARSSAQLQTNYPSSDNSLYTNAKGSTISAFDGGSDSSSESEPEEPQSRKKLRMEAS

The share remaining is the share of the starting amount still present when the sample was taken. Consider `CC[C@H](C)[C@H](NC(=O)[C@H](CCCCN)NC(=O)[C@H](CCC(=O)O)NC(=O)[C@H](CCCNC(=N)N)NC(=O)[C@H](CC(C)C)NC(C)=O)C(=O)N[C@@H](C)C(=O)N[C@H](C(=O)N[C@@H](CC(C)C)C(=O)N[C@@H](CCC(N)=O)C(=O)N[C@@H](Cc1c[nH]c2ccccc12)C(=O)N[C@@H](CSCc1ccc(COCc2ccc(CSC[C@H](NC(=O)[C@H](CC(C)C)NC(=O)[C@H](CCC(=O)O)NC(=O)[C@H](CCC(=O)O)NC(=O)[C@@H](NC(=O)[C@H](CCC(=O)O)NC(=O)[C@H](Cc3c[nH]c4ccccc34)NC(=O)[C@H](CCC(N)=O)NC(=O)[C@H](Cc3c[nH]cn3)NC(=O)[C@@H](NC(=O)[C@H](CCC(=O)O)NC(=O)[C@H](CC(N)=O)NC(=O)[C@H](CCCCN)NC(=O)[C@H](CCCNC(=N)N)NC(=O)[C@H](CCCNC(=N)N)NC(=O)[C@H](CC(C)C)NC(C)=O)[C@@H](C)O)[C@@H](C)CC)C(N)=O)cc2)cc1)C(=O)N[C@H](C(=O)N[C@@H](CCC(=O)O)C(=O)N[C@@H](CCC(=O)O)C(=O)N[C@@H](CC(C)C)C(=O)N[C@@H](CCCNC(=N)N)C(=O)N[C@@H](CCCCN)C(N)=O)[C@@H](C)CC)[C@@H](C)O` [CHD^Max-1] (I: Ac-LREKIATLQWCIEELRK-NH2 / II: Ac-LRRKNETHQWEIEELC-NH2; linker I:11-II:16 via X1), for which, in data set [1], the “CHD^Max-1 Binding Affinity, Kd (MAX^1-160)” value is listed as “N.B”. In data set [2], the share remaining at 24 h was roughly 80%.
